# Article PMC10747733, “N-Substituted 2-(Benzenosulfonyl)-1-Carbotioamide Derivatives Exert Antimicrobial and Cytotoxic Effects via Aldehyde Dehydrogenase Pathway: Synthesis, In Silico and In Vitro Studies” (Pharmaceuticals, 2023)
# Tested on: Gram-negative bacteria
# Test: Broth microdilution, summary over reference Gram-negative bacteria
# Type: cell-based
# Text: Reference strains of microorganisms that came from American Type Culture Collection (ATCC) (Manassas, VA, USA) were used for this study. The representative Gram-positive bacteria were as follows: Staphylococcus aureus ATCC 25923, Staphylococcus aureus ATCC 29213, Staphylococcus aureus ATCC 43300, Staphylococcus epidermidis ATCC 12228, Enterococcus faecalis ATCC 29212, Micrococcus luteus ATCC 10240, Bacillus subtilis ATCC 6633 and Bacillus cereus ATCC 10876. […]
# The new compounds WZ1–WZ4 were assayed for both antibacterial and antifungal activity using the broth microdilution method in accordance with the European Committee on Antimicrobial Susceptibility Testing (EUCAST) and Clinical and Laboratory Standards Institute (CLSI) guidelines. […] The antimicrobial effect of compounds WZ1–WZ4 was determined in the concentration range from 2000 to 0.98 µg/mL.
# Then, the microbial suspensions were introduced into each well of the microplate and incubated for 18–24 h at 35 °C. […] Next, the values of the minimum bactericidal concentration (MBC) and minimum fungicidal concentration (MFC) of WZ1–WZ4 were assessed. […] The lowest concentrations of compounds without microbial growth were read as MBC or MFC. […]
structure (smiles),measurement,setting,value
"CCCCCCNC(=S)NNS(=O)(=O)c1ccccc1 [WZ3, 2-(Benzenesulfonyl)-N-Hexylhydrazine-1-Carbothioamide]",MIC,Gram-negative rods from Enterobacterales and Pseudomonas aeruginosa,500 to 1000 µg/mL
same,MIC,remaining Gram-negative bacteria (other than B. bronchiseptica and E. coli),1000 µg/mL
